Usually EC50 stands for the midpoint of the concentration-response curve. A low value points to greater potency.

In the assay the target is T1, human VDR (Homo sapiens, UniProt P11473).
T1 sequence (P11473 1-427): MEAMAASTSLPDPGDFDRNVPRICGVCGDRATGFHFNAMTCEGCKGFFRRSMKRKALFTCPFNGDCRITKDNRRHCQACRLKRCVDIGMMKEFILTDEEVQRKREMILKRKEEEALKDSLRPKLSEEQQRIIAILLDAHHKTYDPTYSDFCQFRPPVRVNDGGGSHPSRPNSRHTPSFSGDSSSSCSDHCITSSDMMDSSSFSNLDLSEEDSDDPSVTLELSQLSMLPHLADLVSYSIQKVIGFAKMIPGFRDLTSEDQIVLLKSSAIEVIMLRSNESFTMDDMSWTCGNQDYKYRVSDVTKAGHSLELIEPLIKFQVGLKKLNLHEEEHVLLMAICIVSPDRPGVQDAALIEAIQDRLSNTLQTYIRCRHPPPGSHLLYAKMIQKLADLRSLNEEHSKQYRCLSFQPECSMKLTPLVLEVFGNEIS
T1 sequence (P19793 1-462 partner): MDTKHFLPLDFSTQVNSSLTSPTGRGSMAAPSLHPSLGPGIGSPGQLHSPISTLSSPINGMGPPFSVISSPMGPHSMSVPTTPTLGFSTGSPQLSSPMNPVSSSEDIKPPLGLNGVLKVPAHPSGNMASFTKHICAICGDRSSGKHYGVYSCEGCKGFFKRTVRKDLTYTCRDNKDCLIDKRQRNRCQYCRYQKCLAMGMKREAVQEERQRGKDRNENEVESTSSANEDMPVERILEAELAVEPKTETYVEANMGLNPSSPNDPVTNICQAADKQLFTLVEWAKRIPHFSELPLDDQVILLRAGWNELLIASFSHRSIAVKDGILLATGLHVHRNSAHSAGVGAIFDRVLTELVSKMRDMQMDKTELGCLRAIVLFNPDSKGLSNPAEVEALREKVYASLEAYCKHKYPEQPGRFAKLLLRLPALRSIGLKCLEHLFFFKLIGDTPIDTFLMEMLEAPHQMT
The experiment in a line: Evaluation of VDR transcription activity in human osteoblasts (HOS cells), luciferase reporter. Conditions: Activity (EC50, VDR transcription activity), HOS cells transfected with human VDR, human RXRα and DR3 luciferase reporter; 21 hours. Background: A reporter such as luciferase makes a cellular process visible.

For the compound `C=C1/C(=C\C=C2/CCC[C@]3(C)[C@@H]([C@H](C)CN4CC[C@@H](OC(F)(F)F)C4)CC[C@@H]23)C[C@@H](O)C[C@@H]1O` [Compound B066, (1R,3S,Z)-5-(2-((1R,3aS,7aR,E)-7a-methyl-1-((S)-1-((R)-3-(trifluoromethoxy)pyrrolidin-1-yl)propan-2-yl)octahydro-4H-inden-4-ylidene)ethylidene)-4-methylenecyclohexane-1,3-diol], the EC50 fell in the range of 0.01 to 0.1 µM.

In turn, `C[C@@H](CN1CC[C@@H](C(F)F)C1)[C@H]1CC[C@H]2/C(=C/C=C3CC(O)C[C@H](O)C3)CCC[C@]12C` (stereo in doubt) [Compound B100, (1R,3S)-5-(2-((1R,3aS,7aR,E)-1-((R)-1-((R)-3-(difluoromethyl)pyrrolidin-1-yl)propan-2-yl)-7a-methyloctahydro-4H-inden-4-ylidene)ethylidene)cyclohexane-1,3-diol] displayed an EC50 of 0.001 to 0.01 µM. As for `C=C1/C(=C\C=C2/CCC[C@]3(C)[C@@H]([C@H](C)CN4CCCC(O)(C(F)F)C4)CC[C@@H]23)C[C@@H](O)C[C@@H]1O` (single isomer, unassigned) [Compound C034b], the figure is 0.01 to 0.1 µM. The same measure for `C=C1/C(=C\C=C2/CCC[C@]3(C)[C@@H]([C@H](C)CCN4CCO[C@H](C(F)F)C4)CC[C@@H]23)C[C@@H](O)C[C@@H]1O` [Compound D035, (1R,3S,Z)-5-(2-((1R,3aS,7aR,E)-1-((R)-4-((S)-2-(difluoromethyl)morpholino)butan-2-yl)-7a-methyloctahydro-4H-inden-4-ylidene)ethylidene)-4-methyloctahydro-1,3-diol]: 0.01 to 0.1 µM.

As for `CC[C@@H]1CCN(C[C@@H](C)[C@H]2CC[C@H]3/C(=C/C=C4C[C@@H](O)C[C@H](O)C4)CCC[C@]23C)C1` [Compound B008, (1R,3R)-5-(2-((1R,3aS,7aR,E)-1-((S)-1-((R)-3-ethylpyrrolidin-1-yl)propan-2-yl)-7a-methyloctahydro-4H-inden-4-ylidene)ethylidene)cyclohexane-1,3-diol], the EC50 was in the range of 0.01 to 0.1 µM. As for `C=C1/C(=C\C=C2/CCC[C@]3(C)[C@@H]([C@@H](C)CN4CCC(C(F)F)CC4)CC[C@@H]23)C[C@@H](O)[C@H](C)[C@@H]1O` [Compound C020, (1R,2S,3S,Z)-5-(2-((1R,3aS,7aR,E)-1-((R)-1-(4-(difluoromethyl)piperidin-1-yl)propan-2-yl)-7a-methyloctahydro-4H-inden-4-ylidene)ethylidene)-2-methyl-4-methylenecyclohexane-1,3-diol], the figure is 0.001 to 0.01 µM; as for `C=C1[C@H](O)CC(=C/C=C2\CCC[C@]3(C)[C@@H]([C@H](C)CN4CCCC(C)(OC)C4)CC[C@@H]23)C[C@H]1O` (single isomer, unassigned) [Compound C047b], 0.01 to 0.1 µM.

`C[C@@H](CN1CC[C@H](C(F)F)C1)[C@H]1CC[C@H]2/C(=C/C=C3CC(O)C[C@H](O)C3)CCC[C@]12C` (stereo in doubt) [Compound B099, (1R,3S)-5-(2-((1R,3aS,7aR,E)-1-((R)-1-((S)-3-(difluoromethyl)pyrrolidin-1-yl)propan-2-yl)-7a-methyloctahydro-4H-inden-4-ylidene)ethylidene)cyclohexane-1,3-diol] registered an EC50 of 0.01 to 0.1 µM. As for `C=C1/C(=C\C=C2/CCC[C@]3(C)[C@@H]([C@H](C)CN4CCC(C(F)(F)F)CC4)CC[C@@H]23)C[C@@H](O)[C@H](C)[C@@H]1O` [Compound C010, (1R,2S,3S,Z)-2-methyl-5-(2-((1R,3aS,7aR,E)-7a-methyl-1-((S)-1-(4-(trifluoromethyl)piperidin-1-yl)propan-2-yl)octahydro-4H-inden-4-ylidene)ethylidene)-4-methylenecyclohexane-1,3-diol], the figure is 0.01 to 0.1 µM.

Take `C[C@H](CCCN1CC[C@@H](C(F)F)C1)[C@H]1CC[C@H]2/C(=C/C=C3C[C@@H](O)C[C@H](O)C3)CCC[C@]12C` [Compound B085, (1R,3R)-5-(2-((1R,3aS,7aR,E)-1-((R)-5-((R)-3-(difluoromethyl)pyrrolidin-1-yl)pentan-2-yl)-7a-methyloctahydro-4H-inden-4-ylidene)ethylidene)cyclohexane-1,3-diol]: the EC50 fell in the range of 0.01 to 0.1 µM. The same measure for `C[C@H](CCN1CC(OC(F)(F)F)C1)[C@H]1CC[C@H]2/C(=C/C=C3C[C@@H](O)C[C@H](O)C3)CCC[C@]12C` [Compound A028, (1R,3R)-5-(2-((1R,3aS,7aR,E)-7a-methyl-1-((R)-4-(3-(trifluoromethoxy)azetidin-1-yl)butan-2-yl)octahydro-4H-inden-4-ylidene)ethylidene)cyclohexane-1,3-diol]: 0.1 to 1 µM. As for `C=C1[C@H](O)CC(=C/C=C2\CCC[C@]3(C)[C@@H]([C@H](C)CN4CC[C@@H](C(C)(F)F)C4)CC[C@@H]23)C[C@H]1O` [Compound B035, (1R,3R)-5-(2-((1R,3aS,7aR,E)-1-((S)-1-((R)-3-(1,1-difluoroethyl)pyrrolidin-1-yl)propan-2-yl)-7a-methyloctahydro-4H-inden-4-ylidene)ethylidene)-2-methylenecyclohexane-1,3-diol], the figure is 0.001 to 0.01 µM. The same measure for `C=C1/C(=C\C=C2/CCC[C@]3(C)[C@@H]([C@H](C)CN4CC[C@@H](C(C)(F)F)C4)CC[C@@H]23)C[C@@H](O)[C@H](C)[C@@H]1O` [Compound B033, (1R,2S,3S,Z)-5-(2-((1R,3aS,7aR,E)-1-((S)-1-((R)-3-(1,1-difluoroethyl)pyrrolidin-1-yl)propan-2-yl)-7a-methyloctahydro-4H-inden-4-ylidene)ethylidene)-2-methyl-4-methylenecyclohexane-1,3-diol]: 0.001 to 0.01 µM; for `C[C@@H](CN1CC[C@@H](F)C1)[C@H]1CC[C@H]2/C(=C/C=C3CC(O)C[C@H](O)C3)CCC[C@]12C` (stereo in doubt) [Compound B098, (1R,3S)-5-(2-((1R,3aS,7aR,E)-1-((R)-1-((R)-3-fluoropyrrolidin-1-yl)propan-2-yl)-7a-methyloctahydro-4H-inden-4-ylidene)ethylidene)cyclohexane-1,3-diol]: 0.01 to 0.1 µM. `C[C@H](CN1CC(OC(F)(F)F)C1)[C@H]1CC[C@H]2/C(=C/C=C3C[C@@H](O)C[C@H](O)C3)CCC[C@]12C` [Compound A013] yielded an EC50 of 0.1 to 1 µM. Compound `C[C@H](CCCN1CC[C@@H](F)C1)[C@H]1CC[C@H]2/C(=C/C=C3C[C@@H](O)C[C@H](O)C3)CCC[C@]12C` [Compound B017, (1R,3R)-5-(2-((1R,3aS,7aR,E)-1-((R)-5-((R)-3-fluoropyrrolidin-1-yl)pentan-2-yl)-7a-methyloctahydro-4H-inden-4-ylidene)ethylidene)cyclohexane-1,3-diol] yielded an EC50 of 0.01 to 0.1 µM. On to `C=C1/C(=C\C=C2/CCC[C@]3(C)[C@@H]([C@H](C)CN4CC(C(C)(F)F)C4)CC[C@@H]23)C[C@@H](O)[C@H](C)[C@@H]1O` [Compound A008, (1R,2S,3S,Z)-5-(2-((1R,3aS,7aR,E)-1-((S)-1-(3-(1,1-difluoroethyl)azetidin-1-yl)propan-2-yl)-7a-methyloctahydro-4H-inden-4-ylidene)ethylidene)-2-methyl-4-methylenecyclohexane-1,3-diol], for which the EC50 lay in the range of 0.01 to 0.1 µM. As for `C=C1/C(=C\C=C2/CCC[C@]3(C)[C@@H]([C@@H](C)CN4CCC(C(F)(F)F)CC4)CC[C@@H]23)C[C@@H](O)[C@H](C)[C@@H]1O` [Compound C012, (1R,2S,3S,Z)-2-methyl-5-(2-((1R,3aS,7aR,E)-7a-methyl-1-((R)-1-(4-(trifluoromethyl)piperidin-1-yl)propan-2-yl)octahydro-4H-inden-4-ylidene)ethylidene)-4-methylenecyclohexane-1,3-diol], the figure is 0.001 to 0.01 µM; as for `C=C1[C@H](O)CC(=C/C=C2\CCC[C@]3(C)[C@@H]([C@H](C)CN4CC[C@@H](OCC(F)F)C4)CC[C@@H]23)C[C@H]1O` [Compound B056, (1R,3R)-5-(2-((1R,3aS,7aR,E)-1-((S)-1-((R)-3-(2,2-difluoroethoxy)pyrrolidin-1-yl)propan-2-yl)-7a-methyloctahydro-4H-inden-4-ylidene)ethylidene)-2-methylenecyclohexane-1,3-diol], 0.01 to 0.1 µM; as for `C=C1/C(=C\C=C2/CCC[C@]3(C)[C@@H]([C@H](C)CN4CCO[C@H](C(F)F)C4)CC[C@@H]23)C[C@@H](O)C[C@@H]1O` [Compound D005, (1R,3S,Z)-5-(2-((1R,3aS,7aR,E)-1-((S)-1-((S)-2-(difluoromethyl)morpholino)propan-2-yl)-7a-methyloctahydro-4H-inden-4-ylidene)ethylidene)-4-methylenecyclohexane-1,3-diol], 0.01 to 0.1 µM.
